One molecule from PMC7139549, “TLD1433 Photosensitizer Inhibits Conjunctival Melanoma Cells in Zebrafish Ectopic and Orthotopic Tumour Models” (Cancers, 2020) can be followed below.

For the assay, the system named is CRMM1 cells. As to the kind of experiment: Annexin-V-FITC / Propidium Iodide FACS, CRMM1. In kind it is cell-based, Human. The source says:
Depending on the nature and intracellular localization of a PS, the light dose, and the cell type, PDT is known to provoke either necrosis, apoptosis, or autophagy. In order to investigate the death mechanism induced by green light-activated TLD1433 in CRMM1 and CRMM2 cells, the cells were stained with Annexin V and propidium iodide, and further analysed by fluorescence-activated cell sorting (FACS).
Figure 3 Green light irradiation of TLD1433 induces apoptosis and necrosis in CRMM1 and CRMM2 cells. (A) CRMM1 and (C) CRMM2 were stained with Annexin-V-FITC and Propidium Iodide. The percentages of live, early apoptotic, later apoptotic and necrotic cells in CRMM1 (B) and CRMM2 (D) were counted by FACS. Results are presented as means ± SD from three independent experiments. […]

Take `Cc1ccnc(-c2cc(C)ccn2)c1.Cc1ccnc(-c2cc(C)ccn2)c1.[Cl-].[Cl-].[Ru+2].c1csc(-c2ccc(-c3ccc(-c4nc5c6cccnc6c6ncccc6c5[nH]4)s3)s2)c1` [TLD1433]: the “cell fate by FACS (in words)” value by setting is: (CRMM1, dark TLD1433 group) “most cells were found alive”; (CRMM1, light-activated TLD1433 group) “about half of the cells were found dead”.
